In a compilation of properties of binary mixtures (doi:10.1016/j.molliq.2021.118292):

Experiment: xn = mol fraction of the nth substance listed
Conditions: 298.15 K, 101 kPa

## CC(C)=O + CC(=O)[O-].CCCC[n+]1ccn(C)c1
x1 = 1
  speed of sound: 1163 m/s

## O + CC(=O)[O-].CC[n+]1ccn(C)c1
x1 = 1
  speed of sound: 1495 m/s

## CC(=O)[O-].CCCC[n+]1ccn(C)c1 + CC(C)=O
x2 = 0
  speed of sound: 1650 m/s
x2 = 0.2024
  speed of sound: 1600 m/s
x2 = 0.3155
  speed of sound: 1566 m/s
x2 = 0.49
  speed of sound: 1497 m/s
x2 = 0.5915
  speed of sound: 1445 m/s
x2 = 0.689
  speed of sound: 1384 m/s
x2 = 0.8036
  speed of sound: 1301 m/s
x2 = 0.8357
  speed of sound: 1276 m/s

## CC[n+]1ccn(C)c1.N#C[S-] + CC(C)=O
x2 = 0
  speed of sound: 1851 m/s
x2 = 0.1125
  speed of sound: 1824 m/s
x2 = 0.1889
  speed of sound: 1798 m/s
x2 = 0.3058
  speed of sound: 1758 m/s
x2 = 0.3917
  speed of sound: 1720 m/s
x2 = 0.5127
  speed of sound: 1652 m/s
x2 = 0.6
  speed of sound: 1590 m/s
x2 = 0.6892
  speed of sound: 1513 m/s
x2 = 0.7842
  speed of sound: 1417 m/s
x2 = 0.9008
  speed of sound: 1286 m/s

## CC(C)=O + CC[n+]1ccn(C)c1.N#C[S-]
x1 = 1
  speed of sound: 1166 m/s

## CC(=O)[O-].CC[n+]1ccn(C)c1 + O
x2 = 0
  speed of sound: 1735 m/s
x2 = 0.1306
  speed of sound: 1754 m/s
x2 = 0.2326
  speed of sound: 1763 m/s
x2 = 0.2865
  speed of sound: 1781 m/s
x2 = 0.3671
  speed of sound: 1795 m/s
x2 = 0.4047
  speed of sound: 1803 m/s
x2 = 0.4896
  speed of sound: 1811 m/s
x2 = 0.5258
  speed of sound: 1838 m/s
x2 = 0.5507
  speed of sound: 1841 m/s
x2 = 0.7151
  speed of sound: 1910 m/s
x2 = 0.7317
  speed of sound: 1922 m/s
x2 = 0.8099
  speed of sound: 1952 m/s
x2 = 0.9053
  speed of sound: 1915 m/s
